In patent US20090088461A1, “Methods of Treating or Preventing Cardiac Disease Associated With a High Fat Diet” (Synvista Therapeutics, Inc., priority 2007, published 2009):
Entries after “also recorded” stand apart in the source; their conditions may differ.

How the values were obtained:
Format in all cases: in vivo
[1] = test system: cardiac hypertrophy (β-MHC, α-MHC); test: Assessment of cardiac hypertrophy in HF-fed mice; details: HF diet; for Mean myocyte diameter / Total LV mass / Total cardiac mass: 1 mg/kg/day oral gavage; for Gene expression Alpha MHC / Gene expression Beta MHC: real time RT-PCR
Text: Adult (8-week-old) male […] mice (Precinct Animal Centre, Melbourne, Australia) and RAGE knockout (KO) mice^17 ([…] al., J Clin Invest. 113:1641-50, 2004) were housed in a temperature-controlled room on a 12-h light-dark cycle. Mice were placed on either a standard diet (AIN-93G; Specialty feeds, Perth AUS; n=10/group) or a high fat (HF) diet formulated to mimic a “Western fast food diet”, (SF05-031, Specialty Feeds; n=10). Both diets contained the same vitamin and calorie content. […] Animals receiving a HF diet were further randomized to receive alagebrium chloride at a dose of 1 mg/kg/day delivered by oral gavage. All groups were followed for 16 weeks. The total cardiac and isolated left ventricular mass was measured at sacrifice, and expressed adjusted for body surface area in square meters (m^2). […] Cardiac hypertrophy in obesity reactivates the fetal gene program, characterized by a switch to β-Myosin heavy chain (β-MHC) expression in the adult murine heart^8 (Ng et al., Circ Res. 68:1742-50, 1991). Gene expression of markers of pathological hypertrophy, β-MHC and α-MHC were assessed by real-time quantitative RT-PCR. This was performed using the TaqMan system based on real-time detection of accumulated fluorescence, as previously described^19 (Thomas et al., J Am Soc Nephrol. 16:2976-84, 2005). Gene expression was normalized to 18S mRNA and reported as ratios compared to the level of expression in untreated control mice, which were given the arbitrary value of one.

[2] = test system: myocardial fibrosis (collagen I, collagen IV); test: Assessment of myocardial fibrosis in HF-fed mice; details: for collagen deposition / collagen accumulation associated with high fat feeding: HF-fed mice, histology (FIG. 1); for Gene expression Collagen I / Gene expression Collagen IV: HF diet, real time RT-PCR
Text: Adult (8-week-old) male […] mice (Precinct Animal Centre, Melbourne, Australia) and RAGE knockout (KO) mice^17 ([…] al., J Clin Invest. 113:1641-50, 2004) were housed in a temperature-controlled room on a 12-h light-dark cycle. Mice were placed on either a standard diet (AIN-93G; Specialty feeds, Perth AUS; n=10/group) or a high fat (HF) diet formulated to mimic a “Western fast food diet”, (SF05-031, Specialty Feeds; n=10). Both diets contained the same vitamin and calorie content. […] Animals receiving a HF diet were further randomized to receive alagebrium chloride at a dose of 1 mg/kg/day delivered by oral gavage. All groups were followed for 16 weeks. Previous studies have shown that obesity is associated with an increase in intramyocardial fibrosis. Gene expression of markers of fibrosis, including collagens and fibronectin were assessed by real-time quantitative RT-PCR, as detailed above. Perivascular collagen deposition was assessed by Van Giesen's Stain and interstitial fibrosis was assessed by staining with Picrosirus red staining of organized collagen. […] Paraffin-fixed cardiac sections were also stained for collagen IV by immunohistochemistry, as previously described^12 (Candido et al., Circ Res. 92:785-92, 2003).

[3] = test system: myocardial inflammation (IL-6, TNF α, ICAM-1, MCP-1, NF-κBp65); test: Assessment of myocardial inflammation in HF-fed mice; details: HF diet, real time RT-PCR
Text: Adult (8-week-old) male […] mice (Precinct Animal Centre, Melbourne, Australia) and RAGE knockout (KO) mice^17 ([…] al., J Clin Invest. 113:1641-50, 2004) were housed in a temperature-controlled room on a 12-h light-dark cycle. Mice were placed on either a standard diet (AIN-93G; Specialty feeds, Perth AUS; n=10/group) or a high fat (HF) diet formulated to mimic a “Western fast food diet”, (SF05-031, Specialty Feeds; n=10). Both diets contained the same vitamin and calorie content. […] Animals receiving a HF diet were further randomized to receive alagebrium chloride at a dose of 1 mg/kg/day delivered by oral gavage. All groups were followed for 16 weeks. The expression of inflammatory cytokines, tumor necrosis factor (TNFα), interleukin-6 (IL-6), along with macrophage infiltration, is augmented following cardiac stress. The gene expression of IL-6, TNF α, the adhesion molecule, ICAM-1 and the chemokine, […] (MCP-1) in left ventricular homogenates were assessed by real-time quantitative RT-PCR. The myocardial expression of IL-6 protein was further quantitated by ELISA.

[4] = test system: AGEs (CML), S100 A8/A9, RAGE, AGE-R1, AGE-R3; test: Accumulation of RAGE ligands and AGE receptor expression in HF-fed mice; details: for Gene expression RAGE: Wild-type mice, HF diet, real time RT-PCR, control = 1
Text: Adult (8-week-old) male […] mice (Precinct Animal Centre, Melbourne, Australia) and RAGE knockout (KO) mice^17 ([…] al., J Clin Invest. 113:1641-50, 2004) were housed in a temperature-controlled room on a 12-h light-dark cycle. Mice were placed on either a standard diet (AIN-93G; Specialty feeds, Perth AUS; n=10/group) or a high fat (HF) diet formulated to mimic a “Western fast food diet”, (SF05-031, Specialty Feeds; n=10). Both diets contained the same vitamin and calorie content. […] Animals receiving a HF diet were further randomized to receive alagebrium chloride at a dose of 1 mg/kg/day delivered by oral gavage. All groups were followed for 16 weeks. […] Cardiovasc Diabetol. 5:6, 2006) was also assessed by commercial ELISA.

Cc1sc[n+](CC(=O)c2ccccc2)c1C.[Cl-] [alagebrium chloride, 3-(2-phenyl-2-oxoethyl)-4,5-dimethylthiazolium chloride]
Mean myocyte diameter ([1]; RAGE KO mice): 19.5 ± 0.6 μm
Total LV mass ([1]; RAGE KO mice): 9.7 ± 0.3 g/m^2
Total cardiac mass ([1]; RAGE KO mice): 13.7 ± 0.6 g/m^2
Gene expression Alpha MHC ([1]; RAGE KO mice): reduced
Gene expression Beta MHC ([1]; RAGE KO mice): 1.6 ± 0.2 AU/18s
Gene expression Alpha MHC ([1]; RAGE KO mice, listed as AL): 0.6 ± 0.2 AU/18s
Total LV mass ([1]; Wild-type mice): 9.5 ± 0.3 g/m^2
Total cardiac mass ([1]; Wild-type mice): 14.5 ± 0.4 g/m^2
Mean myocyte diameter ([1]; Wild-type mice, 1 mg/kg/day): no effect
Mean myocyte diameter ([1]; Wild-type mice, listed as AL, 1 mg/kg/day): 19.7 ± 0.8 μm
Gene expression Alpha MHC ([1]; Wild-type mice): reduced
Gene expression Beta MHC ([1]; Wild-type mice): no effect
Gene expression Alpha MHC ([1]; Wild-type mice, listed as AL): 0.7 ± 0.2 AU/18s
Gene expression Beta MHC ([1]; Wild-type mice, listed as AL): 2.5 ± 0.3 AU/18s
collagen deposition / collagen accumulation associated with high fat feeding [2]: unaffected
collagen deposition / collagen accumulation associated with high fat feeding ([2]; listed as alegebrium chloride): reduced
Gene expression Collagen I ([2]; RAGE KO mice): 0.8 ± 0.1 AU/18s
Gene expression Collagen IV ([2]; RAGE KO mice): 0.9 ± 0.1 AU/18s
Gene expression Collagen I ([2]; Wild-type mice): 1.6 ± 0.1 AU/18s
Gene expression Collagen IV ([2]; Wild-type mice): 1.3 ± 0.1 AU/18s
Gene expression ICAM-1 (%) ([3]; RAGE KO mice): reduced
Gene expression Interleukin-6 (%) ([3]; RAGE KO mice): no significant effect
Gene expression MCP-1 (%) ([3]; RAGE KO mice): reduced
Gene expression P-65 (%) ([3]; RAGE KO mice): 0.3 ± 0.1 AU/18s
Gene expression TNF-alpha (%) ([3]; RAGE KO mice): no significant effect
Gene expression ICAM-1 (%) ([3]; RAGE KO mice, listed as AL): 0.2 ± 0.1 AU/18s
Gene expression Interleukin-6 (%) ([3]; RAGE KO mice, listed as AL): 0.4 ± 0.1 AU/18s
Gene expression MCP-1 (%) ([3]; RAGE KO mice, listed as AL): 0.2 ± 0.1 AU/18s
Gene expression TNF-alpha (%) ([3]; RAGE KO mice, listed as AL): 0.4 ± 0.1 AU/18s
Gene expression ICAM-1 (%) ([3]; Wild-type mice): reduced; also recorded: prevented
Gene expression Interleukin-6 (%) ([3]; Wild-type mice): reduced; also recorded: prevented
Gene expression MCP-1 (%) ([3]; Wild-type mice): reduced
Gene expression TNF-alpha (%) ([3]; Wild-type mice): reduced; also recorded: prevented
Gene expression ICAM-1 (%) ([3]; Wild-type mice, listed as AL): 0.2 ± 0.1 AU/18s
Gene expression Interleukin-6 (%) ([3]; Wild-type mice, listed as AL): 0.2 ± 0.1 AU/18s
Gene expression MCP-1 (%) ([3]; Wild-type mice, listed as AL): 0.4 ± 0.1 AU/18s
Gene expression P-65 (%) ([3]; Wild-type mice, listed as AL): 0.8 ± 0.2 AU/18s
Gene expression TNF-alpha (%) ([3]; Wild-type mice, listed as AL): 0.5 ± 0.2 AU/18s
Gene expression P-65 (%) ([3]; Wild-type mice, listed as alagebirum chloride): prevented
increase in S100 A8/A9 following HF feeding ([4]; HF-fed mice, ELISA (FIG. 3)): attenuated
Gene expression RAGE [4]: prevented
Gene expression RAGE ([4]; listed as AL): 1.0 ± 0.2 AU/18s
AGE accumulation (ELISA for CML-modified protein) ([4]; both wild type and RAGE KO mice, HF diet (FIG. 3)): markedly reduced
